From patent US11213536B2, “Acylated compounds for the treatment of ocular pathologies” (CONSEJO SUPERIOR DE INVESTIGACIONES CIENTÍFICAS, priority 2016, dated 2022)
Marks after values point to notes of the source that are not given here.

Key:
[1] = Zebrafish embryo toxicity assay; settings: in vivo, other: incubation of embryos with the compound, 0 to 96 hpf
Protocol: Twenty zebrafish embryos were incubated for each concentration of compound to be tested (1 to 4). The concentrations used of each compound are 0.1 μM, 1 μM, 10 μM, 100 μM and 1 mM. The incubation period goes from 0 to 96 hours post fertilization (hpf). A negative control of 1% DMSO and a positive control of N, N-diethylaminobenzaldehyde (DEAB) are included. After the incubation period, the LC50 (lethal dose for 50% of the animals) is calculated.

Prpf31^A216P/+ (KI) mice = experiment: Prpf31 A216P/+ mice RPE degeneration model, eye drops and light damage; type: in vivo, mouse; settings: for Fundus Abnormal (%) / Fundus Normal (%) / Fundus Abnormal (number) / Fundus Normal (number): 2 mM eye drops daily for two and a half months, 5,000 lux 3 h; for Fundus Abnormal (number) / Fundus Normal (number): n=10; for number of positive responses in optomotor test (visual acuity): 6 spatial frequencies 0.031-0.272 cycles/degree, vs control KI; for thickness of the retina (OCT): vs control KI group; for statistical association with normal fundi vs control KI group: chi-square / Fisher's exact test
Excerpt: Prpf31^A216P/+ mice are a useful model for assessing the degeneration of the RPE. This model is characterized by an increase in the thickness of the Bruch membrane and accumulation of esterified cholesterol between said membrane and the RPE produced by a defect in the splicing of the mRNA of relevant genes of the visual cycle, such as RPE65 and RDH12. The accumulation of toxic products derived from retinol leads to an increase in ROS, infiltration of macrophages, and primary degeneration of the RPE. The degeneration of the RPE occurs late, at approximately 8 months of age. The phenotypic characteristics of this model can be exacerbated by exposure to intense light and are characterized primarily by accumulation of pseudo-drusenoid lesions and regions of atrophy observed in the fundus, with a loss of visual acuity and perception of contrast being observed, as well as a decrease in the amplitude of the c-wave of the ERG and a decrease in the thickness of the retina.
To evaluate the protective effect of the administration of our compounds in eye drops, we used heterozygous 6 month-old Prpf31^A216P/+ (KI) mice that were treated topically with 20 μl of the studied compounds applied directly on the corneal surface daily (L-V) for two and a half months. The compounds used were RES and compound 2, which were diluted in a solution of 13% hydroxypropyl-beta-cyclodextrin (CYCLO) in order to obtain a final concentration of 2 mM of each compound. After two and a half months of application of the eye drops with CICLO, RES, or compound 2, the mutant KI mice were exposed to a light source of 5,000 lux for 3 hours. Normal (WT) and KI mice were also exposed to intense light as test control without receiving any treatment. Subsequently, the fundus of the animals was evaluated, in addition to the visual acuity by means of the optomotor test, the thickness of the retina by means of optical coherence tomography (OCT), and the amplitude of the c-wave by ERG.
Two categories were used to quantify the macroscopic characteristics of the fundus: abnormal and normal fundus. The fundi categorized as abnormal were those in which the presence of autofluorescent pseudo-drusenoid lesions was observed (FIG. 11; arrows) or with regions of focal atrophy (FIG. 11; arrowheads). The percentage of abnormal fundi in the WT mice exposed to light (WT control) was 20%, and in the untreated KI (KI control) it was 90%. Meanwhile, this percentage was reduced to 30% in mice treated with compound 2 (KI 2) and only to 60% in both mice treated with CYCLE (KI CYCLE) and RES (KI RES) (table 1). […] These values were similar to those observed when comparing WT control and KI control (chi-square=7.35, P<0.01, Fisher's exact test P<0.05) and with a probability of obtaining a normal fundus in the WT control group of eight times greater than in the control KI (normal RR=8; IC95%=1.184-54.043).
To evaluate the thickness of the retina in vivo, a Stratus OCT (Zeiss) was used with a scanner adjusted to 6 lines of 3.45 mm each arranged radially. Six measurements were performed in each eye, upon which the retinal map was prepared (FIG. 12) with the thickness of the retina quantified from the ganglion cell layer to the RPE.
To evaluate the functional integrity of the RPE, the amplitude of the c-wave in the ERG was measured. The c-wave is defined as a positive slow wave that appears after the b-wave and is used to measure the functional integrity of the RPE. Since the amplitude of this wave can be affected by the integrity of the photoreceptors, it is best to normalize the results with the amplitude of the b-wave, for which reason a quantification was performed of the proportion of the amplitude of the c-wave between the amplitude of the b-wave (c-/b-wave ratio) (FIG. 13). […]

RAW 264.7 macrophages = experiment: Inflammation parameters (TNF-α, NO, IL-6) in supernatant of LPS-stimulated RAW 264.7 macrophages; type: cell-based; settings: 10 μM, LPS 1 μg/ml, 24 h
Protocol: To determine the production of cytokines, 5×10^5 RAW 264.7 macrophages were seeded in 24-well plates (0.5 ml per well). The compounds to be tested were then added (10 μM), and the macrophages were either stimulated or not through the addition of LPS (1 μg/ml) to the culture medium. After 24 hours, the levels of IL-6 and TNF-α were measured in the supernatants by ELISA using the capture and biotinylated antibodies from BD PharMingen and PrepoTech (Gonzalez-Rey et al., Gut. 2009; 58:929-939; Sánchez et al., Stem Cells. 2011; 29:251-262). The levels of NO in the supernatants at 24 hours were measured indirectly by determining the nitrite concentration in the medium using the Griess reagent (Anderson et al., Gut. 2013; 62:1131-1141). A minimum of two independent experiments and three replicates per experiment were performed for each measured value. The values are expressed as the mean±standard deviation.
In the previous assay, the levels of various inflammation parameters were measured (TNF-α, NO, and IL-6) by ELISA after treatment with RES or with compound 2 (FIGS. 3, 4, and 5).

[2] = KI mice, 2 mM eye drops, light damage

| SMILES | LC50 [1] [µM] | Fundus Abnormal (%) (Prpf31^A216P/+ (KI) mice; KI mice) | Fundus Normal (%) (Prpf31^A216P/+ (KI) mice; KI mice) | Fundus Abnormal (%) (Prpf31^A216P/+ (KI) mice; KI mice, listed as compound 2) | Fundus Abnormal (number) (Prpf31^A216P/+ (KI) mice; KI mice) | Fundus Normal (number) (Prpf31^A216P/+ (KI) mice; KI mice) | autofluorescent pseudo-drusenoid lesions and regions of focal atrophy in the fundus (Prpf31^A216P/+ (KI) mice; [2]) | c-/b-wave ratio (ERG) (Prpf31^A216P/+ (KI) mice; [2]) | number of positive responses in optomotor test (visual acuity) (Prpf31^A216P/+ (KI) mice; [2]) | autofluorescent pseudo-drusenoid lesions and regions of focal atrophy in the fundus (Prpf31^A216P/+ (KI) mice; KI mice, 2 mM eye drops, light damage, listed as compound 2) | thickness of the retina (OCT) (Prpf31^A216P/+ (KI) mice; [2]) | statistical association with normal fundi vs control KI group (Prpf31^A216P/+ (KI) mice) | RR normal (probability of normal fundus vs. KI control) (Prpf31^A216P/+ (KI) mice; vs KI control, IC95% = 1.044-46.949) | IL-6 in culture medium (RAW 264.7 macrophages; ELISA) | TNF-α in culture medium (RAW 264.7 macrophages; ELISA) | NO in culture medium (RAW 264.7 macrophages; Griess reagent) |
| --- | --- | --- | --- | --- | --- | --- | --- | --- | --- | --- | --- | --- | --- | --- | --- | --- |
| CCCCCCCC(=O)OCC1OC(Oc2cc(O)cc(/C=C/c3ccc(O)cc3)c2)C(O)C(O)C1O [Compound 2, trans-resveratrol-3-O-(6′-O-octanoyl)-β-D-glucopyranoside] | < 140 | (30) % | (70)* % | 30 | 3 | 7 | this type of lesion was not observed | significantly higher | significantly higher | prevented the formation | significantly greater | statistically significant relationship | 7 | similarly |  |  |
| Oc1ccc(C=Cc2cc(O)cc(O)c2)cc1 [RES, resveratrol, reference compound] | < 1000 |  | (40) % |  | 6 | 4 | areas with autofluorescent punctiform yellow-white lesions (arrows) were observed |  | only significant at 0.194 cycles/degree |  | significantly greater | no statistically significant association |  | significantly decreases | significantly decreases | significantly decreases |
